According to ChEMBL document CHEMBL1151780, “Correlation of inhibitor effects on enzyme activity and thermal stability for the integral membrane protein fatty acid amide hydrolase” (Bioorg Med Chem Lett, 2008):

Experiments:
[1] = biological target: T1, Fatty-acid amide hydrolase 1 (Homo sapiens, UniProt O00519); assay: Inhibition of FAAH at pH 7.5
T1 sequence (O00519 whole entry): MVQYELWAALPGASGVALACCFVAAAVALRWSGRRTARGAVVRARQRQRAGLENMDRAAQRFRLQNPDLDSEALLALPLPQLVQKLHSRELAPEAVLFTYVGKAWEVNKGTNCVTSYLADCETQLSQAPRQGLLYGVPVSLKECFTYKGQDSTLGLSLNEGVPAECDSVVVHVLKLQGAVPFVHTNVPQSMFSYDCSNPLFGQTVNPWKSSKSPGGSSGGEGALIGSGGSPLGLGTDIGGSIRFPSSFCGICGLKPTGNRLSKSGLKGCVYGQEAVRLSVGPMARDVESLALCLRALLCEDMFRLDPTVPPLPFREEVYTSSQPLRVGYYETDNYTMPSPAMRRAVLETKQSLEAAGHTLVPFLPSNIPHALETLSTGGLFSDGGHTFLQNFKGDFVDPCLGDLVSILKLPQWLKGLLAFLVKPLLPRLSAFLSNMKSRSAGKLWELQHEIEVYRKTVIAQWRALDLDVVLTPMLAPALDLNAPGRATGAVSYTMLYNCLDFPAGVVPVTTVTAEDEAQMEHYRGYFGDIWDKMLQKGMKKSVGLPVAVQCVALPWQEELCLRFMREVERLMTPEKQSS

[2] = biological target: T2, Fatty-acid amide hydrolase 1 (Homo sapiens) (UniProt O00519)
T2 sequence (whole entry): T1 sequence (O00519 whole entry)
Description: Binding affinity to FAAH assessed as thermal stability by measuring melting temperature

[3] = biological target: T1, Fatty-acid amide hydrolase 1; assay: Inhibition of FAAH at pH 9

| Structure (SMILES) | Ki [1] [nM] | Tm [2] [°C] | Ki [3] [nM] |
| --- | --- | --- | --- |
| O=C(O)c1cccc(-c2cnc(C(=O)CCCCCCc3ccccc3)o2)n1 | 10.4 |  |  |
| NC(=O)c1cccc(-c2cnc(C(=O)CCCCCCc3ccccc3)o2)n1 |  | 55 |  |
| O=C(CCCCCCc1ccccc1)c1ncc(-c2cccc(-c3nnn[nH]3)n2)o1 |  | 54.7 | 40 |
| O=C(O)c1cccc(-c2nnc(C(=O)CCCCCCc3ccccc3)o2)n1 |  | 64.3 | 14 |
| O=C(CCCCCCc1ccccc1)c1nnc(-c2ccccn2)o1 |  | 60.6 | 0.29 |
| O=C(CCc1ccc(-c2ccccc2)cc1)c1ncc(-c2ccccn2)o1 |  | 59.9 |  |
| O=C(CCCCCCc1ccccc1)c1ncc(-c2ccccc2)o1 |  | 47.2 |  |
| COC(=O)c1cccc(-c2cnc(C(=O)CCCCCCc3ccccc3)o2)n1 |  | 53.4 |  |
| O=C(O)c1cccc(-c2cnc(C(=O)CCc3ccc(-c4ccc(CN5CCSCC5)cc4)cc3)o2)n1 |  | 65.3 | 28 |
| O=C(CCCCCCc1ccccc1)c1ncc(-c2ccccn2)o1 |  | 58.5 |  |
| O=C(O)c1cccc(-c2cnc(C(=O)CCc3ccc(-c4ccccc4)cc3)o2)n1 |  |  | 22 |
